Where a name gives a salt, the structure may show the parent alone.
Experiments:
[1] = at 20° C.; cited from earlier work
[2] = mouse, in vivo, 4 mg/kg, 5 days
Experimental: The brain and plasma levels of (TDF) after the administration of the composition to mice at the dose of 4 mg/kg by the oral (n=6) or the nasal route (n=6) over 5 days have been measured and are shown in the Table below:

Compound | water solubility [1] | brain concentration, nasal versus oral administration [2]
CC(C)OC(=O)[C@H](C)N[P@](=O)(CO[C@H](C)Cn1cnc2c(N)ncnc21)Oc1ccccc1 [Tenofovir alafenamide] | about 4.86 mg/ml | 
CC(C)OC(=O)OCOP(=O)(CO[C@H](C)Cn1cnc2c(N)ncnc21)OCOC(=O)OC(C)C [Tenofovir disoproxil fumarate] |  | more than 4 fold
